Consider six compounds from US20230123135A1 (priority 2020, published 2023).

“Also recorded” adds a separate entry of the source. Read-outs that look alike come from different tables or passages of the source.

Data set [1] relates to TNF-α. Description: animal or person. It is filed as in vivo, Mus musculus (BALB/c). Also on record: TNF-α production in BALF: unit not given here. The conditions noted are these: for inhibition of TNF-α production at 3 mg/kg: Mus musculus, read-out: inhibitory rate of TNF-α production (negative control as 100%).
The test system of data set [2] is IL-6. The data set is described as follows: animal or person. The conditions noted are these: for inhibition of IL-6 production (%) at 3 mg/kg: Mus musculus, read-out: inhibitory rate of IL-6 production (negative control as 100%). It is filed as in vivo, Mus musculus (BALB/c).
Data set [3] concerns IL-1β. The data set is described as follows: animal or person. It is filed as in vivo, Mus musculus (BALB/c). The conditions noted are these: for Inhibition rate of IL-1β production (%) at 3 mg/kg: Mus musculus, read-out: inhibitory rate of IL-1β production (negative control as 100%); for IL-1 beta Mean AUC (baseline-adjusted): mouse, in vivo.
Data set [4] deals with primary rat peritoneal macrophages.
Another data set relates to SARS-CoV-2. The data set is described as follows: microbe, parasite or virus in culture. It is filed as cell-based. As to conditions: for IC50: read-out: IC50, inhibition of SARS-CoV-2 infection.
Another data set can be described thus: in vitro. As to conditions: African green monkey.
Data set [5] concerns primary rat peritoneal macrophages. This is another data set of the same source.
In data set [6] the test system is TNF-α. It is filed as cell-based, rat. The conditions noted are these: 24 h, LPS 100 ng/mL; read-out: IC50, secretion of TNF-α.
Data set [7] has as its system IL-1β. It is filed as cell-based, rat.
The test system of data set [8] is IL-6. It is filed as cell-based, rat.
Another data set deals with NO production. It is filed as cell-based, mouse. As to conditions: read-out: IC50 for inhibition of NO production.
The next data set relates to PGE2 production. It is filed as cell-based, mouse.
In a further data set the test system is iNOS. It is filed as cell-based, mouse.
The next data set deals with COX-2. It is filed as cell-based, mouse.
For data set [9], the system named is TNF-α. It is filed as cell-based, mouse.
Data set [10] deals with IL-1β. It is filed as cell-based, mouse.
Another data set deals with iNOS mRNA. It is filed as cell-based, mouse.
Another data set relates to COX-2 mRNA. It is filed as cell-based, mouse.
For a further data set, the system named is TNF-α mRNA. It is filed as cell-based, mouse.
For a further data set, the system named is IL-1β mRNA. It is filed as cell-based, mouse.
For another data set, the system named is IFN-β mRNA. It is filed as cell-based, mouse.
The test system of data set [11] is NF-κB transcriptional activity. It is filed as cell-based, mouse.
The next data set concerns NF-κB. The data set is described as follows: Western blot, NF-κB (p50, p65) protein in RAW264.7 macrophages. The conditions noted are these: 2.5-10 μM 30 min pretreatment, LPS 1 μg/mL 15 min. It is filed as cell-based, mouse. In general terms: Immunoblotting shows a protein as a band on a membrane.
A further data set has as its system IκB. Description: Western blot, IκB degradation in RAW264.7 macrophages. It is filed as cell-based, mouse. The conditions noted are these: 2.5-10 μM 30 min pretreatment, LPS 1 μg/mL 15 min.
In a further data set the test system is SARS-CoV-2 infection. Also on record: species or system person. As to conditions: in vivo.
The conditions of data set [12]: in vivo.
The next data set relates to human telomerase. The conditions noted are these: cited from earlier work.
[13] abbreviates: Severe acute respiratory syndrome coronavirus 2, Vero, 24 h.
Where [14] appears, read: 3 μM, in the absence of significant cell death.

`C[C@@H]1C[C@H]2[C@@H]3CCC4=CC(=O)C=C[C@]4(C)[C@@]3(F)[C@@H](O)C[C@]2(C)[C@@]1(O)C(=O)CO` [Dexamethasone]: the inhibition of TNF-α production at 3 mg/kg in the data set with TNF-α [1] (1 h) amounted to 25%; in the data set on TNF-α [1] (2 h), 28%; in the data set with TNF-α [1] (4 h), 33%; with TNF-α [1] (6 h) it was 28%; in the data set on TNF-α [1] (12 h), 9%. Moreover, in the data set with TNF-α [1] (mouse, in vivo), the “TNF-alpha Mean AUC (baseline-adjusted)” value turned out to be 2815.4 pg·h/mL. In addition, the inhibition of IL-6 production (%) at 3 mg/kg with IL-6 [2] (1 h) was found to be 59%; with IL-6 [2] (2 h), 43%; in the data set with IL-6 [2] (4 h), 59%; in the data set on IL-6 [2] (6 h), 20%; with IL-6 [2] (12 h) it was 16%; with IL-6 [2] (24 h) it was 51%. Besides, the “IL-6 Mean AUC (baseline-adjusted)” value in the data set with IL-6 [2] (mouse, in vivo) came out at 54684.9 pg·h/mL. Also, the Inhibition rate of IL-1β production (%) at 3 mg/kg amounted to 69% in the data set on IL-1β [3] (4 h), 67% with IL-1β [3] (6 h) and 77% in the data set on IL-1β [3] (12 h). Moreover, the “IL-1 beta Mean AUC (baseline-adjusted)” value in the data set on IL-1β [3] was 2637.5 pg·h/mL.

As to `C[C@@H]1CC[C@@]2(OC1)O[C@H]1[C@@H](O)[C@H]3[C@@H]4CC[C@H]5C[C@@H](O[C@@H]6O[C@H](CO)[C@H](O[C@@H]7O[C@H](CO)[C@@H](O)[C@H](O[C@@H]8OC[C@@H](O)[C@H](O)[C@H]8O)[C@H]7O[C@@H]7O[C@H](CO)[C@H](O)[C@H](O[C@@H]8O[C@H](CO)[C@@H](O)[C@H](O)[C@H]8O)[C@H]7O)[C@H](O)[C@H]6O)[C@H](O)C[C@]5(C)[C@H]4CC[C@]3(C)[C@H]1[C@@H]2C` [Digitonin, reference compound], in data set [4], the “cytotoxicity (CytoTox-GLO) compared with vehicle” value is “high toxicity”.

By IC50 is commonly meant the concentration needed to halve the response being measured. Take `Cc1cccc(C)c1OCC(=O)N[C@@H](Cc1ccccc1)[C@@H](O)C[C@H](Cc1ccccc1)NC(=O)[C@H](C(C)C)N1CCCNC1=O` [lopinavir]: in the data set with SARS-CoV-2, the “Selectivity index (SI), CC50/IC50” value came to 3.81. Moreover, in the data set on SARS-CoV-2 (setting [13]), the IC50 worked out at 13.1 µM. In the data set “in vitro”, the CC50 is more than 50 µM.

For the compound `CCC(CC)COC(=O)[C@H](C)N[P@](=O)(OC[C@H]1O[C@@](C#N)(c2ccc3c(N)ncnn23)[C@H](O)[C@@H]1O)Oc1ccccc1` [remdesivir], in the data set with SARS-CoV-2 (setting [13]), the IC50 turned out to be 5.27 µM. In “in vitro”, this compound registered a CC50 of more than 50 µM.

Triton-X [reference compound]: the “cell viability (MTT) compared with vehicle” value in data set [5] was “low cell viability”.

sodium meta-arsenite [SMA]: the IC50 was 2.3 µM in the data set on TNF-α [6]; 0.8 µM with IL-1β [7] (24 h, LPS 100 ng/mL, read-out: IC50, secretion of IL-1β); 0.5 µM in the data set on IL-6 [8] (24 h, LPS 100 ng/mL, read-out: IC50, secretion of IL-6); approximately 2.87 µM in the data set with NO production; 4.25 µM with SARS-CoV-2; 5.7 µM in data set [5] (read-out: IC50 for cell viability, 24 h, LPS 100 ng/mL, MTT). Moreover, the “secretion of IL-1β” value with IL-1β [7] (setting [14]) is “complete inhibition”. Besides, the “secretion of IL-6” value in the data set on IL-6 [8] (setting [14]) is recorded as “complete inhibition”. The “inhibition of PGE2 production” value in the data set with PGE2 production amounted to 20%. Besides, in the data set with iNOS, the iNOS protein expression result is “significantly inhibited”. The COX-2 protein expression result with COX-2 is listed as “slightly inhibited”. The TNF-α protein expression entry with TNF-α [9] is listed as “significantly inhibited”. In addition, in the data set with IL-1β [10], the IL-1β protein expression entry is “significantly inhibited”. Also, the “iNOS mRNA expression” value in the data set on iNOS mRNA is reported as “significantly inhibited”. In addition, the “COX-2 mRNA expression” value with COX-2 mRNA was “not influenced”. Also, in the data set on TNF-α mRNA, the “mRNA level of TNF-α” value was “significantly decreased”. The “expression of IL-1β mRNA” value in the data set with IL-1β mRNA was “no effect”. In addition, the “expression of IFN-β mRNA” value in the data set on IFN-β mRNA is on record as “no effect”. The “LPS-induced SEAP expression (NF-κB transcriptional activity)” value in data set [11] is “inhibited LPS-induced SEAP expression significantly”. For the same compound, the NF-κB protein level result in the data set with NF-κB is “markedly decreased”. Also, in the data set with IκB, the IκB degradation result is listed as “markedly inhibited”. In addition, the “TNF-α production in BALF” value in the data set with TNF-α [1] (mouse, in vivo) was found to be 794. Also, the “TNF-alpha Mean AUC (baseline-adjusted)” value with TNF-α [1] (mouse, in vivo, 1.03 mg/kg) came to 7984.4 pg·h/mL; in the data set with TNF-α [1] (mouse, in vivo, 1.54 mg/kg), 6064.8 pg·h/mL; with TNF-α [1] (mouse, in vivo, 2.05 mg/kg), 4215.8 pg·h/mL. In addition, the “inhibitory rate of IL-6 production (negative control as 100%)” value in the data set on IL-6 [2] (mouse, in vivo) is 60%. The “IL-6 Mean AUC (baseline-adjusted)” value stood at 165404.0 pg·h/mL in the data set on IL-6 [2] (mouse, in vivo, 1.03 mg/kg); 128034.8 pg·h/mL in the data set with IL-6 [2] (mouse, in vivo, 1.54 mg/kg); 78963.1 pg·h/mL in the data set on IL-6 [2] (mouse, in vivo, 2.05 mg/kg). The figures for the “IL-1 beta Mean AUC (baseline-adjusted)” value with IL-1β [3] (1.03 mg/kg), in the data set on IL-1β [3] (1.54 mg/kg) and in the data set with IL-1β [3] (2.05 mg/kg) were 4272.9 pg·h/mL, 3738.3 pg·h/mL and 3045.8 pg·h/mL, respectively. In addition, the “symptoms of SARS-CoV-2 infection after taking SMA” value in the data set with SARS-CoV-2 infection is “effective in alleviating or treating the symptoms of SARS-CoV-2 infection; also recorded: Chest tightness and pain relieved; also recorded: Temporary relief of symptoms”. In addition, the “cytotoxicity (CytoTox-GLO) compared with vehicle” value in data set [4] (24 h, LPS 100 ng/mL) was “concentration-dependent increase in cytotoxicity”. Also, the “cell viability (MTT) compared with vehicle” value in [5] (24 h, LPS 100 ng/mL) is given as “concentration-dependent decrease in viability”. In addition, the CC50 in the data set with Vero cells came to 21.1 µM. In addition, in [12], the “time until fully metabolised and excreted from the body after taking it” value is 72 h. Further, the “inhibition of human telomerase” value with human telomerase is reported as “potent inhibitor”.
